Converted amounts (≈) assume the structure as drawn. Like-named read-outs stand apart in the source and are kept apart here.

The text below walks through data of patent US4965280A, “Antifungal carbinols” (E. I. Du Pont de Nemours and Company, priority 1989, dated 1990).

The test system of assay [1] is Cercosporidium personatum. The experiment in a line: Example B Peanut Late Leafspot. Format: in vivo. To be noted: Nothopassalora personata; 100 PPM; read-out: disease control rating, Ex. B. The method in brief: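 Compounds were dissolved in acetone (6% of final volume) and suspended at 100 or 20 ppm in purified water containing 250 ppm TREM 014 surfactant (polyhydric alcohol esters). The suspension was sprayed to run-off on peanut seedlings.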

Another assay concerns Pyricularia oryzae. The experiment in a line: whole plant or invertebrate. Format: in vivo. To be noted: for pest or weed control at 100 ppm: Pyricularia oryzae, 120 h, read-out: disease control rating, Ex. E, 100 PPM.
The subject of the next assay is Puccinia recondita. Description: Example G wheat leaf rust. Format: in vivo. To be noted: 100 PPM, read-out: disease control rating, Ex. G.
For the next assay, the system named is Venturia inaequalis. Description: Example A apple scab. To be noted: 100 PPM, read-out: disease control rating, Ex. A. Format: in vivo. The method, boiled down:
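Test compounds were dissolved in acetone (6% of final volume) and suspended at 100 or 20 ppm in purified water containing 250 ppm of the surfactant TREM 014 (polyhydric alcohol esters). Apple seedlings were sprayed with this suspension to the point of run-off.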

Assay [2] relates to Erysiphe graminis f. sp. tritici. The experiment in a line: Example D wheat powdery mildew. It is filed as in vivo. To be noted: Blumeria graminis, 144 h; 100 PPM; read-out: disease control rating, Ex. D. The method in brief:
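Compounds were dissolved in acetone (6% of final volume), then suspended at 100 or 20 ppm in purified water containing 250 ppm TREM 014 surfactant. Wheat seedlings were sprayed with this suspension to run-off.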

Assay [3] has as its system Rhizoctonia solani. The experiment in a line: Example K cotton blight. It is filed as in vivo. To be noted: 336 h, 5 kg/ha, read-out: disease control rating, Ex. K. How it is done: […] Seeds and soil were then inoculated with a mixture of sand, cereal and mycelium of the fungus Rhizoctonia solani, causal agent of cotton blight, and incubated in a growth chamber at 30° C. for 14 days. Disease ratings were then made.

A further assay relates to Pythium aphanadermatum. The experiment in a line: Example J cucumber damping off. It is filed as in vivo. To be noted: Pythium, 336 h; 5 kg/ha; read-out: disease control rating, Ex. J. The method in brief: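 This cucumber damping-off test used soil and seeds infested with a sand–cereal preparation carrying mycelium of Pythium aphanadermatum. Incubation took place in a growth chamber held at 30° C. for 14 days. Afterwards, the extent of disease was scored as a disease control rating.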

Assay [4] has as its system Fusarium oxysporum f. sp. cucumerinum. Description: Example L cucumber wilt. It is filed as in vivo. To be noted: 336 h, 5 kg/ha, read-out: disease control rating, Ex. L. How it is done: […] Seeds and soil were then inoculated with a mixture of sand, cereal and mycelium of the fungus Fusarium oxysporum f. sp. cucumerinum, causal agent of cucumber wilt, and incubated in a growth chamber at 30° C. for 14 days. Disease ratings were then made.

Another assay deals with Botrytis cinerea. Description: Example C bean grey mold. It is filed as in vivo. To be noted: 100 PPM; for pest or weed control at 100 ppm: Botrytis cinerea, 24 h, read-out: disease control rating, Ex. C. The method, boiled down:
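Test compounds were taken up in acetone (6% of final volume) and suspended at 100 or 20 ppm in purified water containing 250 ppm TREM 014 surfactant (polyhydric alcohol esters). Broad bean seedlings were sprayed with this suspension until run-off.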

In a further assay the test system is Sclerotium rolfsii. The experiment in a line: Example M southern blight. To be noted: Agroathelia rolfsii, 336 h; 5 kg/ha; read-out: disease control rating, Ex. M. It is filed as in vivo. How it is done:
[…] Seeds and soil were then inoculated with a mixture of sand, cereal and mycelium of the fungus Sclerotium rolfsii, causal agent of sourthern blight, and incubated in a growth chamber at 30° C. for 14 days. Disease ratings were then made.

The subject of assay [5] is Candida albicans ATCC 11651. Description: In vivo systemic Candida infection in mice, primary assay. Details: species or system Candida albicans; CF-1 female mice. To be noted: 150 mg/kg per day; for responders at 150 mg/kg: Candida albicans, read-out: % Survival. The method, boiled down:
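CF-1 female mice (20 g, 10 per group) were infected IV with 0.2 ml of 1×10^7/ml C. albicans ATCC 11651, then given test compound subcutaneously at 50 or 150 mg/kg/day at 1 and 6 h post-infection and once daily for three more days. Survival was followed for 21 days against infected untreated mice; ≥70% protection at 14 days was scored active.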

A further assay relates to Plasmorpara viticola. The experiment in a line: Example I grape downy mildew. Format: in vivo. To be noted: read-out: disease control rating, Ex. I. The method in brief: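 Applied as a foliar spray to run-off on grape seedlings, the compounds were formulated at 100 or 20 ppm in water containing 250 ppm TREM 014, with acetone making up 6% of the volume.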
Assay [6] relates to Candida albicans ATCC 11651. Description: In vitro antifungal MIC, microtiter broth dilution. To be noted: for MIC: Candida albicans, ATCC11651, 24 h, read-out: MIC values, C. albicans, 30°, 24 hours. (In general: In broth dilution the organism is exposed to a series of concentrations in liquid medium.)
The test system of assay [7] is Aspergillus fumigatus ATCC 28214. Description: In vitro antifungal MIC, microtiter broth dilution. To be noted: for MIC: Aspergillus fumigatus, ATCC28214, 24 h, read-out: MIC values, A. fumigatus, 30°, 24 hours.
Assay [8] relates to Rhizoctonia solani. The experiment in a line: Example F rice sheath blight. Format: in vivo. To be noted: 100 PPM; for pest or weed control at 100 ppm: Rhizoctonia solani, 144 h, read-out: disease control rating, Ex. F. The method, boiled down:
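Compounds, dissolved in acetone at 6% of final volume, were suspended at 100 or 20 ppm in purified water with 250 ppm polyhydric alcohol ester surfactant (TREM 014). Rice seedlings were sprayed with this suspension to run-off.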

For the next assay, the system named is Phytophthora infestans. Description: whole plant or invertebrate. It is filed as in vivo. To be noted: for pest or weed control at 100 ppm: Phytophthora infestans, in Solanum lycopersicum, read-out: disease control rating, Ex. H, 100 PPM.

By MIC is commonly meant the least concentration at which growth counts as inhibited. Consider `C=C(c1ccc(F)cc1)C(Cn1cncn1)(OC)c1ccc(F)cc1` (stereo not drawn) [Example 359], for which the pest or weed control at 100 ppm is 100% in [1]; 88% with Pyricularia oryzae; 100% in the assay with Puccinia recondita; 72% with Venturia inaequalis; 95% in [2]; 83% in the assay with Botrytis cinerea. The figures for the pest or weed control at 100 ppm with Plasmorpara viticola, in the assay with Rhizoctonia solani [8] and in the assay on Phytophthora infestans were 0%, 62% and 0%, respectively. Also, the pest or weed control at 5000 g/ha (with Rhizoctonia solani [3]; in the assay with Pythium aphanadermatum; in assay [4]; with Sclerotium rolfsii) was 0% in each case. The responders at 150 mg/kg in assay [5] (ATCC11651, 168 h, day 7) turned out to be 100%; in assay [5] (ATCC11651, 336 h, day 14), 80%; in [5] (ATCC11651, 504 h, day 21), 80%. Also, the MIC in assay [6] amounted to 0.4 µg/mL (≈ 1.17 µM); in assay [7] it was 50 µg/mL (≈ 146 µM).

With `C=C(c1ccc(F)cc1)C(O)(Cn1cncn1)c1ccc(F)cc1` (single isomer, unassigned) [Example 1277], the pest or weed control at 100 ppm in assay [1] was determined as 65%; in the assay on Puccinia recondita, 39%; in the assay with Venturia inaequalis it was 9%; in assay [2], 0%; with Plasmorpara viticola, 25%. In addition, in the assay with Pyricularia oryzae (100 PPM), the “disease control rating, Ex. E” value came out at 0%. For the same compound, the pest or weed control at 5000 g/ha (with Rhizoctonia solani [3]; in the assay on Pythium aphanadermatum; in [4]; in the assay with Sclerotium rolfsii) was 0% throughout. In the assay with Botrytis cinerea, the “disease control rating, Ex. C” value was found to be 0%. The “% Survival” value in [5] (day 14) was 100%; in assay [5] (day 21), 90%. Besides, in [5] (ATCC11651, 168 h, day 7), the responders at 150 mg/kg is 100%. Further, in assay [6] (30°, 24 hours), the “MIC values, C. albicans” value came out at 0.03 µg/mL (≈ 0.0916 µM). Besides, the “MIC values, A. fumigatus” value in assay [7] (30°, 24 hours) was 6.3 µg/mL (≈ 19.2 µM). Also, in the assay on Rhizoctonia solani [8], the “disease control rating, Ex. F” value worked out at 0%. In addition, the “disease control rating, Ex. H” value with Phytophthora infestans (100 PPM) was 0%.

In the case of `C=C(c1ccc(F)cc1)C(O)(Cn1cncn1)c1ccc(-c2ccccc2)cc1` (stereo not drawn) [Example 657], the pest or weed control at 100 ppm turned out to be 100% in assay [1]; 49% with Pyricularia oryzae; 100% with Puccinia recondita; 62% in the assay on Venturia inaequalis; 98% in assay [2]; 81% with Botrytis cinerea. Further, the values for the pest or weed control at 100 ppm in the assay on Plasmorpara viticola, with Rhizoctonia solani [8] and in the assay with Phytophthora infestans were 37%, 97% and 24%, respectively. In addition, the pest or weed control at 5000 g/ha (with Rhizoctonia solani [3]; in the assay on Pythium aphanadermatum; in [4]; in the assay with Sclerotium rolfsii) was 0% each time. The responders at 150 mg/kg worked out at 0% in [5] (ATCC11651, 168 h, day 7); 0% in assay [5] (ATCC11651, 336 h, day 14); 0% in [5] (ATCC11651, 504 h, day 21). The MIC worked out at 0.4 µg/mL (≈ 1.04 µM) in assay [6] and 100 µg/mL (≈ 259 µM) in [7].
